Experimental data taken from the SangsterLogP compilation.

Key:
[1] = method code SF-RC, from DOI: 10.1002/ps.2780410303
[2] = method code SF-HPLC, from DOI: 10.1023/a:1015902024664, PMID: 2235895; conditions: pH 7.0
[3] = not given; remark: listed apart in the source
[4] = method code SF-HPLC, from DOI: 10.1016/0378-5173(90)90303-l; conditions: pH 7.4
[5] = method code SF-HPLC, from DOI: 10.1039/a702469j; conditions: pH 7.0
[6] = method code SF-AS, from DOI: 10.1016/s0969-8051(99)00063-3, PMID: 10628565; conditions: pH 7.0
[7] = method code SF, from Yoshimoto, M. (1982). Quantitative structure-activity relationships and structure patterns of drugs. SankyoÌ„ KenkyuÌ„jo nenpoÌ„ (Annual report of Sankyo Research Laboratories), 34, 1-38.
[8] = not given; remark: listed apart in the source
[9] = not given; remark: listed apart in the source
[10] = not given; remark: listed apart in the source
[11] = method code SF, from DOI: 10.1016/0378-5173(90)90261-2; conditions: pH 3.0
[12] = not given; remark: listed apart in the source
[13] = method code SF-AS, from DOI: 10.1021/jm00395a009, PMID: 3681892; conditions: pH 7.4
[14] = method code SF-HPLC, from DOI: 10.1023/a:1018903407592, PMID: 8165182; conditions: pH 7.4
[15] = method code SF-AS, from DOI: 10.1016/0223-5234(94)90063-9; conditions: pH 2.0
[16] = not given; remark: listed apart in the source
[17] = method code SF, from DOI: 10.1248/cpb.39.1346, PMID: 1914012
[18] = method code SF-AS, from DOI: 10.1016/0378-5173(86)90115-8
[19] = method code SF-AS, from Falk, M.; Luecke, L. (1989). Transport of substances through lipid membranes. 11. Effect of esterification on the dissociation and permeation of orotic acid. Pharmazie, 44(9)647.; conditions: pH 1.2
[20] = method code SF, from DOI: 10.1016/0168-3659(92)90078-6; conditions: pH 7.0
[21] = method code SF-AS, from DOI: 10.1021/jm00040a014, PMID: 8035429; conditions: pH 7.4
[22] = method code SF, from Wang, L.; Li, H.; Wang, X.; Zhang, Z. (1993). Determination of aqueous solubilities and partition coefficients of substitutive ethylketone congeners by generator column. Huanjing Huaxue, 12(2)151-154.
[23] = method code SF, from DOI: 10.1007/bf01610114, PMID: 6839039
[24] = method code SF-AS, from DOI: 10.1016/j.bmc.2004.10.037, PMID: 15653345
[25] = method code SF-HPLC, from DOI: 10.1016/0378-5173(88)90064-6; conditions: pH 7.4

## CCCCc1cnc(C2=NC(C)(C(C)C)C(=O)N2)c(C(=O)O)c1 (stereo unspecified)
[1]; pH 2.8
  logD: 1.99

## Clc1ccc(C(Cn2ccnc2)OCc2ccsc2Cl)c(Cl)c1 (stereo unspecified)
other
  logP: 4.7

## CCCC(=O)OC[C@H]1O[C@@H](n2cc(C)c(=O)[nH]c2=O)C[C@@H]1N=[N+]=[N-]
[2]
  logD: 1.5

## COc1ccc(C(c2ccc(OC)cc2)C(Cl)Cl)cc1
[3]
  logP: 3.78

## O=C1CCCCCCCCCCC1
[3]
  logP: 4.1

## CCN(CC)C(=O)COC(=O)c1cc(S(N)(=O)=O)c(Cl)cc1NCc1ccco1
[4]
  logD: 2.45

## CCOP(=O)(OCC)C(C)(C)[N+]([O-])=Cc1ccccn1
[5]
  logD: 0.68

## O=c1[nH]c(Nc2ccccc2)nc2c1ncn2CCO
[6]
  logD: 0.83

## CCC(C)SCC(=O)NC1(OC)C(=O)N2C(C(=O)O)=C(COC(N)=O)CSC21 (stereo unspecified)
[7]
  logP: -1.38

## CCOP(=O)(OCC)C(C)(C)[N+]([O-])=Cc1ccc([N+](=O)[O-])cc1
[5]
  logD: 1.43

## CCCCCC(=O)OC[C@H]1O[C@@H](n2cc(C)c(=O)[nH]c2=O)C[C@@H]1N=[N+]=[N-]
[2]
  logD: 2.45

## COC1(NC(=O)CSc2nc3c[nH]cnc-3n2)C(=O)N2C(C(=O)O)=C(COC(N)=O)CSC21 (stereo unspecified)
[7]
  logP: -1.72

## CC(=O)Nc1ccc(OCC(O)CNCC(O)COc2ccccc2)cc1 (stereo unspecified)
[8]
  logP: 1.39

## Cc1cc(Cl)c(Cl)cc1Cc1ccc(Cl)cc1Cl
[9]
  logP: 6.43

## CC(=O)NC(CCC(=O)O)C(=O)Nc1nnc(-c2cccc(Cl)c2Cl)c(N)n1 (stereo unspecified)
[10]
  logP: 1.6

## O=C(O)CCCCCc1ccccc1
[11]
  logD: 3.27

## COCCn1cnc2c(=O)[nH]c(Nc3ccccc3)nc21
[6]
  logD: 1.2

## CC(=O)c1cccc(Nc2ccccc2C(=O)O)c1
[12]
  logP: 4.07

## CC(C)C1(C)N=C(c2ncc(Br)cc2C(=O)O)NC1=O (stereo unspecified)
[1]; pH 1.8
  logD: 1.19

## O=c1ccn(C2OC(CO)C(O)C2O)c(=O)n1Cc1ccccc1 (stereo unspecified)
[13]
  logD: 0.33

## CCC(=O)OCOC(=O)c1cc(S(N)(=O)=O)c(Cl)cc1NCc1ccco1
[4]
  logD: 2.9

## CCCCC(=O)OCCOCn1cnc2c(=O)[nH]c(N)nc21
[14]
  logD: 0.37

## CCCC(=O)OCCOCn1cnc2c(=O)[nH]c(N)nc21
[14]
  logD: -0.08

## Cn1c(CC(=O)O)cnc1C(=O)c1ccc([N+](=O)[O-])cc1
[15]
  logD: 0.86

## Fc1ccc(-c2ccc(-c3ccc(F)cc3)o2)cc1
[3]
  logP: 5.11

## CC(C)NC(C)Cc1ccc(I)cc1 (stereo unspecified)
[16]
  logP: 1.6

## CC1(C)[C@@H](O[C@H]2O[C@H](C(=O)O)[C@@H](O)[C@H](O)[C@H]2O[C@@H]2O[C@H](C(=O)O)[C@@H](O)[C@H](O)[C@H]2O)CC[C@@]2(C)[C@@H]3C(=O)C=C4[C@H]5C[C@@](C)(C(=O)O)CC[C@@]5(C)CC[C@@]4(C)C3(C)CC[C@@H]12 (stereo partly specified)
[17]
  logP: 2.8

## COc1ccc(C(=O)c2ncc(CC(=O)O)n2C)cc1
[15]
  logD: 0.11

## CN(C(=O)CCC#N)c1ccc(S(=O)(=O)N(C)C)cc1
[18]
  logP: -0.17

## CCCCCCCCOC(=O)c1cc(=O)[nH]c(=O)[nH]1
[19]
  logD: 2.6

## CCCCCCCCCOC(=O)c1cc(=O)[nH]c(=O)[nH]1
[19]
  logD: 2.41

## CCCC(C)C(=O)OCC1CCC(n2cnc3c(O)ncnc32)O1 (stereo unspecified)
[20]
  logD: 1

## CCCCCCCOC(=O)c1cc(=O)[nH]c(=O)[nH]1
[19]
  logD: 2.15

## CCOP(=O)(CC(=O)OCC1OC(n2ccc(N)nc2=O)CS1)OCC (stereo unspecified)
[21]
  logD: 0.48

## O=C(CSc1ccccc1)c1ccccc1
[22]
  logP: 1.88

## O=[N+]([O-])c1cccc(O[C@@H]2O[C@H](CO)[C@@H](O)[C@H](O)[C@H]2O)c1
[17]
  logP: -0.46

## O=c1[nH]c(Nc2ccccc2)nc2c1ncn2C1CC(O)C(CO)O1 (stereo unspecified)
[6]
  logD: 0.4

## Cc1cc(Cc2ccc(Cl)c(Cl)c2)c(Cl)cc1Cl
[9]
  logP: 6.51

## COC1OC(n2ccc(=O)[nH]c2=O)C(OC)C1OC (stereo unspecified)
[13]
  logD: -0.3

## CCCCCC(=O)OCCOCn1cnc2c(=O)[nH]c(N)nc21
[14]
  logD: 0.93

## COCc1cnc(C2=NC(C)(C(C)C)C(=O)N2)c(C(=O)O)c1 (stereo unspecified)
[1]; pH 2.5
  logD: 0.47

## CC1(C(=O)O)CCC2(C)CCC3(C)C(=CC(=O)C4C5(C)CCC(O)C(C)(C)C5CCC43C)C2C1 (stereo unspecified)
[17]
  logP: 4.77

## CCOC(=O)c1cc(S(N)(=O)=O)c(Cl)cc1NCc1ccco1
[4]
  logD: 2.67

## CCCCC(=O)N(C)c1ccc(S(=O)(=O)N(C)C)cc1
[18]
  logP: 1.63

## Cc1cc(I)cc(CN(C)CCCN(C)C)c1O
[16]
  logP: 2.2

## CC(C)OC(=O)c1ccccc1C(=O)OC(C)C
[23]
  logP: 2.83

## Cn1c(CC(=O)O)cnc1C(=O)c1ccc(Cl)cc1
[15]
  logD: 1.17

## O=C(CCCN1CCC(O)(c2ccc(I)cc2)CC1)c1ccc(F)cc1
[16]
  logP: 2.6

## COC1(NC(=O)CSc2nncs2)C(=O)N2C(C(=O)O)=C(COC(N)=O)CSC21 (stereo unspecified)
[7]
  logP: -1.95

## O=C(O)CCCCCCc1ccccc1
[11]
  logD: 3.63

## OC(CNCC(O)COc1ccccc1)COc1ccccc1 (stereo unspecified)
[8]
  logP: 2.52

## CC(C)(C)C(=O)OCC1CCC(n2cnc3c(O)ncnc32)O1 (stereo unspecified)
[20]
  logD: 0.6

## CCOC(=O)C(CS)NCc1ccc(O)c2ncccc12 (stereo unspecified)
[24]
  logP: 0.21

## CC(C)C(=O)OCC1CCC(n2cnc3c(O)ncnc32)O1 (stereo unspecified)
[20]
  logD: 0.02

## OCCN1CCN(Cc2ccc(O)c3ncccc23)CC1
[24]
  logP: 0.54

## C#CCN(C)Cc1ccc(O)c2ncccc12
[24]
  logP: 1.92

## CN(C(=O)CCO)c1ccc(S(=O)(=O)N(C)C)cc1
[18]
  logP: -0.26

## CCCCCCCCCC(=O)OC[C@H]1O[C@@H](n2cc(C)c(=O)[nH]c2=O)C[C@@H]1N=[N+]=[N-]
[2]
  logD: 4.45

## CC(=O)NCC(=O)Nc1nnc(-c2cccc(Cl)c2Cl)c(N)n1
[10]
  logP: 1.1

## CN(CCO)C(=O)COC(=O)c1ccccc1O
[25]
  logD: 0.86

## CSCCC(NC(C)=O)C(=O)Nc1nnc(-c2cccc(Cl)c2Cl)c(N)n1 (stereo unspecified)
[10]
  logP: 1.92

## CC(C)(C)NC[C@H](O)COc1nsnc1N1CCOCC1
[8]
  logP: 1.98

## O=C(O)c1ccccc1Nc1cccc(O)c1
[12]
  logP: 3.43

## Cc1cc(Cl)c(Cc2cc(Cl)ccc2Cl)cc1Cl
[9]
  logP: 6.51

## COc1cccc(Nc2ccccc2C(=O)O)c1
[12]
  logP: 4.31

## O=C(O)CCCCCCCc1ccccc1
[11]
  logD: 4.09

## CC(=O)c1ccc2cc(C(C)C(=O)OCC(=O)N(C)CCO)ccc2c1 (stereo unspecified)
[25]
  logD: 2.01

## CC(C)COC(=O)c1ccccc1C(=O)OCC(C)C
[23]
  logP: 4.11

## O=C(CSc1ccccc1)c1ccc(Cl)cc1
[22]
  logP: 2.69

## CCCCCCC(O)(Cn1ccnc1)c1ccc(Cl)cc1Cl (stereo unspecified)
other
  logP: 5.2

## CC(=O)c1ccc2cc(C(C)C(=O)OCC(=O)N(C)C)ccc2c1 (stereo unspecified)
[25]
  logD: 2.05

## CCOP(=O)(OCC)C(C)(C)[N+]([O-])=Cc1ccc(Cl)cc1
[5]
  logD: 2.44

## Cc1ccc(SCC(=O)c2ccccc2)cc1
[22]
  logP: 2.46

## OC(Cn1ccnc1)(Cn1cncn1)c1ccc(Cl)cc1Cl (stereo unspecified)
other
  logP: 1.6

## CC(=O)OCC1OC(n2ccc(=O)n(Cc3ccccc3)c2=O)C(OC(C)=O)C1OC(C)=O (stereo unspecified)
[13]
  logD: 1.51

## CCCCCOC(=O)c1ccccc1C(=O)OCCCCC
[23]
  logP: 4.85
